The results in this text go back to patent publication US8829014B2, “Thiazole and thiophene analogues, and their use in treating autoimmune diseases and cancers” (Board of Supervisors of Louisiana State University and …, priority 2006, dated 2014).

As a reminder, the inhibition is the relative decrease from the control value, in per cent.

The subject of one assay is carageenan-induced edema. Nature of the assay: Carrageenan-induced rat paw edema test (anti-inflammatory activity). In kind it is in vivo, Sprague-Dawley rats. The following applies: rat paw edema, 50 mg/kg, reading 3 hours after carrageenan, [(Control−Test)/Control]×100%; for inhibition in vivo at 50 mg/kg: Rattus norvegicus, po, 3 h, read-out: % Protection P. The method in brief: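 Sprague-Dawley rats (male and female, 150-250 g), fasted 18 h, given compound orally at 50 mg/kg in 0.1% sodium CMC (alternatively i.v., s.c. or i.p.). 1% carrageenan injected sub-plantar in right hind paw 1 h later. Paw displacement read again 3 h later; % protection = [(Control−Test)/Control]×100 versus saline control.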
In general terms: Carrageenan injected into the paw causes an acute inflammation.

Another assay relates to NF-κB. Nature of the assay: TNF-α-induced NF-κB-dependent luciferase expression in HEK cells. In kind it is cell-based. The following applies: luciferase in HEK/NF-κB cells, as described in Example 398; for inhibition at 1 µM: Homo sapiens, HEK293, 1 uM, read-out: NFkB inhibition @ 1 uM.
The next assay concerns AP-1. Nature of the assay: PMA-induced AP-1 luciferase expression in HEK cells. In kind it is cell-based. The following applies: luciferase in HEK/AP-1 cells, as described in Example 398; for inhibition at 1 µM: AP1, 1 uM.

Turning to `Cc1ccc(C(=O)c2sc(Nc3ccc(Cl)cc3)nc2NC(=O)Nc2ccc(F)cc2)cc1` [Example 356, 1-[2-(4-Chloro-phenylamino)-5-(4-methyl-benzoyl)-thiazol-4-yl]-3-(4-fluoro-phenyl)-urea], the inhibition in vivo at 50 mg/kg in the assay on carageenan-induced edema amounted to 69.5%. Also, the figures for the inhibition at 1 µM with NF-κB and in the assay on AP-1 were 54.6% and 48.4%, respectively.
The like results for `Cc1ccc(C(=O)c2sc(N3CCN(C(=O)c4ccco4)CC3)nc2-c2ccco2)cc1` [Example 371, {2-[4-(Furan-2-carbonyl)-piperazin-1-yl]-4-furan-2-yl-thiazol-5-yl}-p-tolyl-methanone] were, in that order, 34%, 10.4% and 25.6%.
The like results for `O=C(c1ccc(Cl)cc1)c1sc(N2CCN(C(=O)c3ccco3)CC2)nc1-c1ccco1` [Example 373, (4-Chloro-phenyl)-{2-[4-(furan-2-carbonyl)-piperazin-1-yl]-4-furan-2-yl-thiazol-5-yl}-methanone] were, in that order, 42%, -6.07% and 26.9%.
The like results for `O=C(c1ccc(Cl)cc1Cl)c1sc(N2CCN(C(=O)c3ccco3)CC2)nc1-c1ccco1` [Example 374, (2,4-Dichloro-phenyl)-{2-[4-(furan-2-carbonyl)-piperazin-1-yl]-4-furan-2-yl-thiazol-5-yl}-methanone] were, in that order, 62.6%, 6.25% and 46.2%.
For `CS(=O)(=O)c1ccc(C(=O)c2sc(N3CCN(C(=O)c4ccco4)CC3)nc2-c2ccco2)cc1` [Example 375, {2-[4-(Furan-2-carbonyl)-piperazin-1-yl]-4-furan-2-yl-thiazol-5-yl}-(4-methanesulfonyl-phenyl)-methanone], the inhibition in vivo at 50 mg/kg in the assay with carageenan-induced edema stood at 49%. Further, the inhibition at 1 µM in the assay with NF-κB is -13.2%; in the assay on AP-1, 22.1%.
The like results for `O=C(c1cccnc1)c1sc(N2CCN(C(=O)c3ccco3)CC2)nc1-c1ccco1` [Example 376, {2-[4-(Furan-2-carbonyl)-piperazin-1-yl]-4-furan-2-yl-thiazol-5-yl}-pyridin-3-yl-methanone] were, in that order, 33%, -14.1% and 45.9%.
The matching figures for `O=C(c1ccncc1)c1sc(N2CCN(C(=O)c3ccco3)CC2)nc1-c1ccco1` [Example 377, {2-[4-(Furan-2-carbonyl)-piperazin-1-yl]-4-furan-2-yl-thiazol-5-yl}-pyridin-4-yl-methanone]: 32%, -7.88% and 4.84%.
Turning to `COc1c(C)cnc(-c2sc(N3CCN(C(=O)c4ccco4)CC3)nc2-c2ccco2)c1C` [Example 378, Furan-2-yl-{4-[4-furan-2-yl-5-(4-methoxy-3,5-dimethyl-pyridin-2-yl)-thiazol-2-yl]-piperazin-1-yl}-methanone], the inhibition in vivo at 50 mg/kg in the assay on carageenan-induced edema came to 84.2%. In addition, the values for the inhibition at 1 µM in the assay with NF-κB and in the assay on AP-1 were 22.1% and 43.3%, respectively.
As to `Cc1c(OCC(F)(F)F)ccnc1-c1sc(N2CCN(C(=O)c3ccco3)CC2)nc1-c1ccco1` [Example 379, Furan-2-yl-(4-{4-furan-2-yl-5-[3-methyl-4-(2,2,2-trifluoro-ethoxy)-pyridin-2-yl]-thiazol-2-yl}-piperazin-1-yl)-methanone], the inhibition in vivo at 50 mg/kg in the assay with carageenan-induced edema is 62.4%. Moreover, the inhibition at 1 µM came out at 51.1% with NF-κB and 3.23% in the assay on AP-1.
In the case of `O=C(c1ccc(Cl)cc1)c1sc(N2CCN(C(=O)c3ccco3)CC2)nc1-c1ccccc1` [Example 383, (4-Chloro-phenyl)-{2-[4-(furan-2-carbonyl)-piperazin-1-yl]-4-phenyl-thiazol-5-yl}-methanone], the inhibition in vivo at 50 mg/kg with carageenan-induced edema stood at 62%. The inhibition at 1 µM in the assay with NF-κB was -0.23%; in the assay on AP-1, 13.3%.
With `O=C(c1ccc(Cl)cc1Cl)c1sc(N2CCN(C(=O)c3ccco3)CC2)nc1-c1ccccc1` [Example 384, (2,4-Dichloro-phenyl)-{2-[4-(furan-2-carbonyl)-piperazin-1-yl]-4-phenyl-thiazol-5-yl}-methanone], the inhibition in vivo at 50 mg/kg in the assay on carageenan-induced edema turned out to be 71.6%. The inhibition at 1 µM in the assay on NF-κB was -1.4%; in the assay with AP-1 it was 42.5%.
Turning to `CS(=O)(=O)c1ccc(C(=O)c2sc(N3CCN(C(=O)c4ccco4)CC3)nc2-c2ccccc2)cc1` [Example 385, {2-[4-(Furan-2-carbonyl)-piperazin-1-yl]-4-phenyl-thiazol-5-yl}-(4-methanesulfonyl-phenyl)-methanone], in the assay on carageenan-induced edema, the inhibition in vivo at 50 mg/kg came out at 67%. Further, the inhibition at 1 µM in the assay with NF-κB was -15.1%; in the assay on AP-1 it was 6.44%.
In the case of `O=C(c1cccnc1)c1sc(N2CCN(C(=O)c3ccco3)CC2)nc1-c1ccccc1` [Example 386, {2-[4-(Furan-2-carbonyl)-piperazin-1-yl]-4-phenyl-thiazol-5-yl}-pyridin-3-yl-methanone], the inhibition in vivo at 50 mg/kg in the assay with carageenan-induced edema is 23%. Moreover, the inhibition at 1 µM with NF-κB came out at 52.8%; with AP-1 it was 22.5%.
The matching figures for `COc1c(C)cnc(-c2sc(N3CCN(C(=O)c4ccco4)CC3)nc2-c2ccccc2)c1C` [Example 388, Furan-2-yl-{4-[5-(4-methoxy-3,5-dimethyl-pyridin-2-yl)-4-phenyl-thiazol-2-yl]-piperazin-1-yl}-methanone]: 73.4%, 7.64% and 52.1%.
The like results for `Cc1c(OCC(F)(F)F)ccnc1-c1sc(N2CCN(C(=O)c3ccco3)CC2)nc1-c1ccccc1` [Example 389, Furan-2-yl-(4-{5-[3-methyl-4-(2,2,2-trifluoro-ethoxy)-pyridin-2-yl]-4-phenyl-thiazol-2-yl}-piperazin-1-yl)-methanone] were, in that order, 61.6%, 30.7% and 42.5%.
`O=C(c1ccccn1)c1sc(N2CCN(C(=O)c3ccco3)CC2)nc1-c1ccccc1` [Example 390, {2-[4-(Furan-2-carbonyl)-piperazin-1-yl]-4-phenyl-thiazol-5-yl}-pyridin-2-yl-methanone]: the inhibition in vivo at 50 mg/kg with carageenan-induced edema was determined as 17%. Also, the inhibition at 1 µM in the assay on NF-κB amounted to 0.47%; in the assay with AP-1, 40.9%.
The like results for `Cc1ccc(Nc2nc(-c3ccccc3)c(C(=O)c3sc(Nc4ccc(C)cc4)nc3-c3ccccc3)s2)cc1` [Example 394, Bis-[2-(4-methyl-phenylamino)-4-phenyl-thiazol-5-yl]-methanone] were, in that order, 56%, 18.7% and 41.9%.
On to “(5-Morpholin-4-yl-4-pyridin-3-yl-thiophene-2-yl)-phenyl-methanone [Example 90]”, for which the “% Protection P” value with carageenan-induced edema is given as 6.09%. Also, the “NFkB inhibition @ 1 uM” value in the assay on NF-κB was found to be 7.91. In addition, the “AP-1 inhibition @ 1 uM” value with AP-1 is reported as 59.49.
With “Bis-[2-(2-benzoyl-amino)-4-benzayl-thiazole-5-yl]-methanone [Example 135]”, the “% Protection P” value in the assay on carageenan-induced edema came out at 34.72%. In the assay on NF-κB, the “NFkB inhibition @ 1 uM” value is reported as 39.98. Further, the “AP-1 inhibition @ 1 uM” value in the assay with AP-1 is reported as 41.43.
For “Bis-[2-(2-furoyl-amino)-4-benzayl-thiazole-5-yl]-methanone [Example 136]”, the “% Protection P” value in the assay on carageenan-induced edema came to 45.13%. The “NFkB inhibition @ 1 uM” value with NF-κB turned out to be 44.46. Moreover, the “AP-1 inhibition @ 1 uM” value with AP-1 is on record as 32.23.
The matching figures for “Bis-[4-(4-chloro-phenyl)-5-morpholin-4-yl-thiophen-2-yl]-methanone [Example 114]”: 30.55%, −39.23 and −70.59.
The matching figures for “Dimethyl[carbonyl-bis(4-phenyl-1,3-thiazole-5,2-diyl)]biscarbamate [Example 130]”: 40.78%, 12.78 and 9.2.
Take “N-{4-[4-(4-Chloro-phenyl)-5-morpholin-4-yl-thiophen-2-carbonyl]-phenyl}acetamide [Example 85]”: in the assay on carageenan-induced edema, the “% Protection P” value turned out to be 20%. Also, in the assay with NF-κB, the “NFkB inhibition @ 1 uM” value was −17.34. For the same compound, the “AP-1 inhibition @ 1 uM” value in the assay on AP-1 was found to be 22.58.
